The text below walks through data of PubChem BioAssay AID270 (DTP/NCI, 2004).

Where “and” joins values, the source holds several entries; their conditions need not be identical. Identical values can stand only once. Results filed as inconclusive are left out.

For this test, the system named is BDF1 mice, s.c. Lewis lung carcinoma, T/C %. In words: NCI In Vivo Anticancer Drug Screen. Data for tumor model Lewis Lung Carcinoma (subcutaneous) in B6D2F1 (BDF1) mice. The settings on record: endpoint: mean tumor weight, schedule: Q01DX011 (ip), vehicle: saline, higher = larger tumour. The essentials: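 First, mice carry a transplantable tumor. Next, groups receive either compound or vehicle. Finally, survival or tumor dimensions in the dosed animals are divided by the corresponding control figure.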

For the molecule `O=c1[nH]c(=O)c2[nH]cnc2[nH]1`, the T/C (dose: 12.5 mg/kg/injection) was 97 % of control; the T/C (dose: 25.0 mg/kg/injection) is 73 % of control; the T/C (dose: 50.0 mg/kg/injection) was 75 % of control and 76 % of control; the T/C (dose: 100.0 mg/kg/injection) is 118 % of control; the T/C (dose: 200.0 mg/kg/injection) was 109 % of control.
